{"source": "patent US20220133694A1", "about": "“PHARMACEUTICAL USE” (Novartis AG, priority 2015, published 2022)", "tested_on": "heart failure patients (NYHA class II-IV) with reduced ejection fraction", "details": "randomized patients", "description": "Patients enrolled were stratified based on the pre-study level of RAAS inhibition (high/low).\nPatients were stratified based on the level of RAAS inhibition as follows: • High RAAS stratum: Patients receiving >160 mg of valsartan or >10 mg total daily dose of enalapril, or equivalent doses of other ARBs/ACEls, respectively, at screening • Low RAAS stratum: Patients receiving ≤160 mg of valsartan or ≤10 mg total daily dose of enalapril, or equivalent doses of other ARBs/ACEls, respectively, at screening. This stratum also included patients who were not on an ACEI or an ARB 4 weeks prior to screening (i.e., ACEI/ARB-naive patients)\nPatients who met all the entry criteria and completed the ACEI-free washout period (if required) attended Visit 2 within approximately one week after Visit 1. […] Eligible hospitalized patients also took the study medication while they were still in the hospital and before they were discharged. Patients took the study medication in addition to their background HF therapy, except for ACEIs and ARBs, which were replaced by the study medication."}
{"substance": "trisodium [3-((1S,3R)-1-biphenyl-4-ylmethyl-3-ethoxycarbonyl-1-butylcarbamoyl) propionate-(S)-3′-methyl-2′-(pentanoyl{2″-(tetrazol-5-ylate)biphenyl-4′-ylmethyl}amino)butyrate]hemipentahydrate [LCZ696]", "values": [{"measurement": "most common reasons for dose adjustment/interruption or permanent discontinuation (AEs)", "result": "hypotension, renal dysfunction or hyperkalemia"}]}
